This passage reports IC50 results from ChEMBL document CHEMBL1145613, “Tubulysin analogs incorporating desmethyl and dimethyl tubuphenylalanine derivatives” (Bioorg Med Chem Lett, 2008).

Test [1] in a line: Inhibition of rat brain tubulin polymerization.
Test [2] has as its system 1A9. The test can be described thus: Antiproliferative activity against human 1A9 cells. The class given is functional, cell-based.

With `CC[C@H](C)[C@H](NC(=O)[C@H]1CCCN1C)C(=O)N[C@H](CC(=O)c1nc(C(=O)N[C@H](CCC(=O)O)Cc2ccccc2)cs1)C(C)C`, the IC50 in test [1] was 2.3 µM; in test [2] it was 24 µM.

In the case of `CC[C@H](C)[C@H](NC(=O)[C@@H]1CCCN1C)C(=O)N[C@H](CC(=O)c1nc(C(=O)N[C@H](CCC(=O)O)Cc2ccccc2)cs1)C(C)C`, the IC50 is 11 µM in test [1] and 50 µM in test [2].

For `CC[C@H](C)[C@H](NC(=O)[C@@H]1CCCCN1)C(=O)N[C@H](CC(=O)c1nc(C(=O)N[C@H](CCC(=O)O)Cc2ccccc2)cs1)C(C)C`, the IC50 was > 20 µM in test [1] and > 50 µM in test [2].

With `CC[C@H](C)[C@H](NC(=O)[C@H]1CCCN1C)C(=O)N[C@H](CC(=O)c1nc(C(=O)N[C@@H](Cc2ccccc2)CC(C)(C)C(=O)O)cs1)C(C)C`, the IC50 amounted to 2.7 µM in test [1] and 3.2 µM in test [2].

In test [2], `COc1ccc(/C=C\c2cc(OC)c(OC)c(OC)c2)cc1O` [COMBRETASTATIN A4] displayed an IC50 of 0.0036 µM.

Regarding `CC[C@H](C)[C@H](NC(=O)[C@H]1CCCCN1C)C(=O)N(COC(=O)CC(C)C)[C@H](C[C@@H](OC(C)=O)c1nc(C(=O)N[C@@H](Cc2ccc(O)cc2)C[C@H](C)C(=O)O)cs1)C(C)C` [TUBULYSIN-A], the IC50 in test [1] amounted to 0.75 µM.

Regarding `CC[C@H](C)[C@H](NC(=O)[C@@H]1CCCCN1C)C(=O)N[C@H](CC(=O)c1nc(C(=O)N[C@H](CCC(=O)O)Cc2ccccc2)cs1)C(C)C`, the half-maximal inhibitory concentration (IC50) in test [1] is 13 µM; in test [2] it was > 50 µM.

Consider `CC[C@H](C)[C@H](NC(=O)[C@H]1CCCN1)C(=O)N[C@H](CC(=O)c1nc(C(=O)N[C@H](CCC(=O)O)Cc2ccccc2)cs1)C(C)C`, for which the results for the IC50 in test [1] and in test [2] were > 20 µM and > 50 µM, respectively.

In the case of `CC[C@H](C)[C@H](NC(=O)[C@H]1CCCCN1)C(=O)N[C@H](CC(=O)c1nc(C(=O)N[C@H](CCC(=O)O)Cc2ccccc2)cs1)C(C)C`, the IC50 in test [1] was 4.4 µM; in test [2], > 50 µM.

`CC[C@H](C)[C@H](NC(=O)[C@H]1CCCCN1C)C(=O)N[C@H](CC(=O)c1nc(C(=O)N[C@@H](Cc2ccccc2)CC(C)(C)C(=O)O)cs1)C(C)C`: the IC50 in test [1] worked out at 1.5 µM; in test [2] it was 0.3 µM.

As for `CC[C@H](C)[C@H](NC(=O)[C@@H]1CCCN1)C(=O)N[C@H](CC(=O)c1nc(C(=O)N[C@H](CCC(=O)O)Cc2ccccc2)cs1)C(C)C`, the IC50 is > 20 µM in test [1] and > 50 µM in test [2].

As for `CC[C@H](C)[C@H](NC(=O)[C@H]1CCCCN1C)C(=O)N[C@H](CC(=O)c1nc(C(=O)N[C@H](CCC(=O)O)Cc2ccccc2)cs1)C(C)C`, the results for the IC50 in test [1] and in test [2] were 0.6 µM and 4 µM, respectively.

In the case of `CN[C@H](C(=O)N[C@H](C(=O)N(C)[C@H](/C=C(\C)C(=O)O)C(C)C)C(C)(C)C)C(C)(C)c1ccccc1` [TALTOBULIN], the IC50 turned out to be 0.7 µM in test [1] and 0.0003 µM in test [2].

What is called IC50 is the midpoint of a concentration-inhibition curve. Read a low IC50 as higher potency.
